Results: patent publication US20230146455A1, “TREATMENT OF INFLAMMATORY DISEASES WITH PEPTIDES AND PHARMACEUTICAL COMPOSITIONS” (Yuyu Pharma, Inc., priority 2020, published 2023)
“And” between values parts separate entries of the source, which are not always exact repeats. Equal values may be shown once. Where a SMILES comes first, the peptide text is derived from it. [ ]: non-standard residue; d: D form. Hyp = O=C(O)[C@@H]1C[C@@H](O)CN1

Experiments:
CCL3/MIP-1 alpha = assay: Example 9 Luminex, LPS hPBMCs: CCL3/MIP-1 alpha; type: cell-based, human
Procedure: (§1) Treatment Human PBMCs were pretreated with YY-101, YDE-011 and YDE-043 or reference compound; Xiidra® at various concentration (ranging from 1 nM to 100 uM) for 2 h before stimulation. An equal volume of 0.5% DMSO was used as a vehicle control. Then, the cells were treated with LPS at 5 ug/ml. The supernatants from treated cells were harvested at 24 h and placed in a 96 well for Luminex cytokine & chemokine profiling using a Luminex 200 multiplex assay (Luminex; R&D system, USA).
(§2) The main study arm with triplicate wells per group in a 24-well plate: • 1. Blank • 2. PBMC: 0.5% DMSO • 3. PBMC+LPS (5 ug/ml) • 4. PBMC+YY-101 100 uM • 5. PBMC+YY-101 10 uM • 6. PBMC+YY-101 1 uM • 7. PBMC+YY-101 0.1 uM • 8. PBMC+YY-101 0.01 uM • 9. PBMC+LPS (5 ug/ml)+Xiidra®100 uM • 10. PBMC+LPS (5 ug/ml)+Xiidra® 10 uM • 11. PBMC+LPS (5 ug/ml)+Xiidra® 1 uM • 12. PBMC+LPS (5 ug/ml)+Xiidra®0.1 uM • 13. PBMC+LPS (5 ug/ml)+Xiidra®0.01 uM • 14. PBMC+LPS (5 ug/ml)+Xiidra®0.001 uM • 15. PBMC+LPS (5 ug/ml)+YY-101 100 uM • 16. PBMC+LPS (5 ug/ml)+YY-101 10 uM • 17. PBMC+LPS (5 ug/ml)+YY-101 1 uM • 18. PBMC+LPS (5 ug/ml)+YY-101 0.1 uM • 19. PBMC+LPS (5 ug/ml)+YY-101 0.01 uM • 20. PBMC+LPS (5 ug/ml)+YY-101 0.001 uM • 21. PBMC+LPS (5 ug/ml)+YDE-011 100 uM • 22. PBMC+LPS (5 ug/ml)+YDE-011 10 uM • 23. PBMC+LPS (5 ug/ml)+YDE-011 1 uM • 24. PBMC+LPS (5 ug/ml)+YDE-011 0.1 uM • 25. PBMC+LPS (5 ug/ml)+YDE-011 0.01 uM • 26. PBMC+LPS (5 ug/ml)+YDE-011 0.001 uM • 27. PBMC+LPS (5 ug/ml)+YDE-043 100 uM • 28. PBMC+LPS (5 ug/ml)+YDE-043 10 uM • 29. PBMC+LPS (5 ug/ml)+YDE-043 1 uM • 30. PBMC+LPS (5 ug/ml)+YDE-043 0.1 uM • 31. PBMC+LPS (5 ug/ml)+YDE-043 0.01 uM • 32. PBMC+LPS (5 ug/ml)+YDE-043 0.001 uM
(§3) Multiplex assay was used to measure 30 cytokines and chemokines. The 1:2, 1:10 and 1:200 diluted cell supernatant and serial dilution of the standard were dispensed into a 96 well plate at 50 ul/well. Then, the pre-mixed cocktail of antibody-coated magnetic beads was dispensed at 50 ul/well and incubated at room temperature for 2 h in a horizontal orbital microplate shaker at 800±500 rpm. The beads were washed using a magnetic device to prevent loss. The biotin-antibody was dispensed in 50 ul of each well and incubated at room temperature for 1 h in a shaker at 800±500 rpm. After washing, streptavidin-PE was added at 50 ul/well and incubated at room temperature for 30 min in a shaker under the same conditions. Finally, after washing, wash buffer (100 ul/well) was added to the plate and incubated in a shaker for 2 min. The Luminex™ 200 setting were set according to the manufacturer's protocol. The data was calculated with a standard five-parameter logistic nonlinear regression analysis of the data (xPonent software 4.2, USA). The levels of cytokine/chemokine are normalized to the live cell counts (1×10^5 cells/mL) and presented as concentrations per mL (pg/mL or ng/mL).

IL-2 = assay: Example 9 Luminex, LPS hPBMCs: IL-2; type: cell-based, human; settings: for IL-2 Concentration: dilution 2.0
Procedure: as §1, §2, §3

[1] = PBMC + LPS(5 ug/ml) + test article 0.001 uM, Mean
[2] = PBMC + LPS(5 ug/ml) + test article 0.001 uM, individual replicates
[3] = PBMC + LPS(5 ug/ml) + test article 0.01 uM, Mean
[4] = PBMC + LPS(5 ug/ml) + test article 0.01 uM, individual replicates
[5] = PBMC + LPS(5 ug/ml) + test article 0.1 uM, Mean
[6] = PBMC + LPS(5 ug/ml) + test article 0.1 uM, individual replicates
[7] = PBMC + LPS(5 ug/ml) + test article 1 uM, Mean
[8] = PBMC + LPS(5 ug/ml) + test article 1 uM, individual replicates
[9] = PBMC + LPS(5 ug/ml) + test article 10 uM, Mean
[10] = PBMC + LPS(5 ug/ml) + test article 10 uM, individual replicates
[11] = PBMC + LPS(5 ug/ml) + test article 100 uM, Mean
[12] = PBMC + LPS(5 ug/ml) + test article 100 uM, individual replicates
[13] = PBMC + test article 1 uM, no LPS, Mean
[14] = PBMC + test article 1 uM, no LPS, individual replicates
[15] = PBMC + test article 10 uM, no LPS, Mean
[16] = PBMC + test article 10 uM, no LPS, individual replicates
[17] = PBMC + test article 100 uM, no LPS, Mean
[18] = PBMC + test article 100 uM, no LPS, individual replicates
[19] = PBMC + LPS(5 ug/ml) + test article 0.001 uM, single replicates
[20] = PBMC + LPS(5 ug/ml) + test article 0.01 uM, single replicates

Q: Which Concentration (CCL3/MIP-1 alpha; [1]) does the source give for `CC(C)C[C@H](NC(=O)CNC(=O)[C@H](CC(=O)O)NC(=O)[C@H](CCC(N)=O)NC(=O)CNC(=O)[C@@H]1C[C@@H](O)CN1)C(=O)N[C@@H](C)C(=O)NCC(=O)N1CCC[C@H]1C(=O)N[C@@H](CCCCN)C(=O)O` [YY-101] (H-[Hyp]GQDGLAGPK-OH; N-terminus and C-terminus assumed) here?
A: Its Concentration is 26885.9 pg/mL.

Q: What about the conc/live cell (CCL3/MIP-1 alpha; [1]) of the same compound?
A: Its conc/live cell is 4200.1 pg/10^5.

Q: What about the Concentration (CCL3/MIP-1 alpha; [2]) of the same compound?
A: Its Concentration is 27986.1 pg/mL and 27195.8 pg/mL and 25475.7 pg/mL.

Q: And the conc/live cell (CCL3/MIP-1 alpha; [2])?
A: Its conc/live cell is 4909.8 pg/10^5 and 3830.4 pg/10^5 and 3860.0 pg/10^5.

Q: What about the Concentration (CCL3/MIP-1 alpha; [3]) of the same compound?
A: The Concentration was 28932.4 pg/mL.

Q: What about the conc/live cell (CCL3/MIP-1 alpha; [3]) of the same compound?
A: The conc/live cell was 4694.7 pg/10^5.

Q: What about the Concentration (CCL3/MIP-1 alpha; [4]) of the same compound?
A: Its Concentration is 29329.0 pg/mL and 29395.7 pg/mL and 28072.3 pg/mL.

Q: What about the conc/live cell (CCL3/MIP-1 alpha; [4]) of the same compound?
A: Its conc/live cell is 4582.7 pg/10^5 and 4899.3 pg/10^5 and 4602.0 pg/10^5.

Q: What about the Concentration (CCL3/MIP-1 alpha; [5]) of the same compound?
A: Its Concentration is 28457.4 pg/mL.

Q: And the conc/live cell (CCL3/MIP-1 alpha; [5])?
A: The conc/live cell was 4886.3 pg/10^5.

Q: And the Concentration (CCL3/MIP-1 alpha; [6])?
A: The Concentration was 28362.4 pg/mL and 28665.1 pg/mL and 28344.5 pg/mL.

Q: And the conc/live cell (CCL3/MIP-1 alpha; [6])?
A: Its conc/live cell is 4574.6 pg/10^5 and 5512.5 pg/10^5 and 4571.7 pg/10^5.

Q: And the Concentration (CCL3/MIP-1 alpha; [7])?
A: The Concentration was 28059.0 pg/mL.

Q: What about the conc/live cell (CCL3/MIP-1 alpha; [7]) of the same compound?
A: Its conc/live cell is 4314.1 pg/10^5.

Q: What about the Concentration (CCL3/MIP-1 alpha; [8]) of the same compound?
A: Its Concentration is 28714.8 pg/mL and 27440.0 pg/mL and 28022.0 pg/mL.

Q: What about the conc/live cell (CCL3/MIP-1 alpha; [8]) of the same compound?
A: Its conc/live cell is 4557.9 pg/10^5 and 3864.8 pg/10^5 and 4519.7 pg/10^5.

Q: And the Concentration (CCL3/MIP-1 alpha; [9])?
A: The Concentration was 29972.3 pg/mL.

Q: What about the conc/live cell (CCL3/MIP-1 alpha; [9]) of the same compound?
A: Its conc/live cell is 4549.0 pg/10^5.

Q: What about the Concentration (CCL3/MIP-1 alpha; [10]) of the same compound?
A: Its Concentration is 30117.5 pg/mL and 30769.7 pg/mL and 29029.8 pg/mL.

Q: And the conc/live cell (CCL3/MIP-1 alpha; [10])?
A: Its conc/live cell is 5019.6 pg/10^5 and 4807.8 pg/10^5 and 3819.7 pg/10^5.

Q: What about the Concentration (CCL3/MIP-1 alpha; [11]) of the same compound?
A: Its Concentration is 33310.8 pg/mL.

Q: What about the conc/live cell (CCL3/MIP-1 alpha; [11]) of the same compound?
A: The conc/live cell was 5765.5 pg/10^5.

Q: And the Concentration (CCL3/MIP-1 alpha; [12])?
A: The Concentration was 35374.6 pg/mL and 31775.7 pg/mL and 32782.2 pg/mL.

Q: And the conc/live cell (CCL3/MIP-1 alpha; [12])?
A: The conc/live cell was 5615.0 pg/10^5 and 5125.1 pg/10^5 and 6556.4 pg/10^5.

Q: What about the conc/live cell (CCL3/MIP-1 alpha; PBMC + test article 0.01 uM, no LPS, Mean) of the same compound?
A: Its conc/live cell is 0.0 pg/10^5.

Q: And the conc/live cell (CCL3/MIP-1 alpha; PBMC + test article 0.1 uM, no LPS, Mean)?
A: The conc/live cell was 0.0 pg/10^5.

Q: What about the Concentration (CCL3/MIP-1 alpha; [13]) of the same compound?
A: Its Concentration is 588.0 pg/mL.

Q: What about the conc/live cell (CCL3/MIP-1 alpha; [13]) of the same compound?
A: Its conc/live cell is 53.5 pg/10^5.

Q: And the Concentration (CCL3/MIP-1 alpha; [14])?
A: The Concentration was 588.0 pg/mL.

Q: And the conc/live cell (CCL3/MIP-1 alpha; [14])?
A: The conc/live cell was 106.9 pg/10^5 and 0.0 pg/10^5.

Q: What about the Concentration (CCL3/MIP-1 alpha; [15]) of the same compound?
A: Its Concentration is 1997.0 pg/mL.

Q: And the conc/live cell (CCL3/MIP-1 alpha; [15])?
A: Its conc/live cell is 156.0 pg/10^5.

Q: What about the Concentration (CCL3/MIP-1 alpha; [16]) of the same compound?
A: Its Concentration is 1997.0 pg/mL.

Q: And the conc/live cell (CCL3/MIP-1 alpha; [16])?
A: Its conc/live cell is 312.0 pg/10^5 and 0.0 pg/10^5.

Q: What about the Concentration (CCL3/MIP-1 alpha; [17]) of the same compound?
A: Its Concentration is 1030.2 pg/mL.

Q: And the conc/live cell (CCL3/MIP-1 alpha; [17])?
A: Its conc/live cell is 80.5 pg/10^5.

Q: What about the Concentration (CCL3/MIP-1 alpha; [18]) of the same compound?
A: Its Concentration is 1030.2 pg/mL.

Q: What about the conc/live cell (CCL3/MIP-1 alpha; [18]) of the same compound?
A: The conc/live cell was 161.0 pg/10^5 and 0.0 pg/10^5.

Q: And the IL-2 conc/live cell (IL-2; [1])?
A: The IL-2 conc/live cell was 0.9 pg/10^5.

Q: And the “MFI, Bead name: IL-2” value (IL-2; [1])?
A: The value was 16.3.

Q: And the “IL-2 Concentration” value (IL-2; [1])?
A: The value was 5.7 pg/mL.

Q: What about the “IL-2 Concentration” value (IL-2; [19]) of the same compound?
A: Its value is 3.4 pg/mL and 7.6 pg/mL and 6.2 pg/mL.

Q: What about the IL-2 conc/live cell (IL-2; [19]) of the same compound?
A: Its IL-2 conc/live cell is 0.6 pg/10^5 and 1.1 pg/10^5 and 0.9 pg/10^5.

Q: What about the “MFI, Bead name: IL-2” value (IL-2; [19]) of the same compound?
A: Its value is 13.0 and 19.0 and 17.0.

Q: And the IL-2 conc/live cell (IL-2; [3])?
A: The IL-2 conc/live cell was 1.4 pg/10^5.

Q: And the “MFI, Bead name: IL-2” value (IL-2; [3])?
A: Its value is 20.3.

Q: And the “IL-2 Concentration” value (IL-2; [3])?
A: The value was 8.6 pg/mL.

Q: And the “IL-2 Concentration” value (IL-2; [20])?
A: The value was 6.9 pg/ml (2×) and 11.8 pg/ml.

Q: What about the IL-2 conc/live cell (IL-2; [20]) of the same compound?
A: The IL-2 conc/live cell was 1.1 pg/10^5 (2×) and 2.0 pg/10^5.

Q: And the “MFI, Bead name: IL-2” value (IL-2; [20])?
A: Its value is 18.0 (2×) and 25.0.

Q: What about the IL-2 conc/live cell (IL-2; [5]) of the same compound?
A: Its IL-2 conc/live cell is 0.0 pg/10^5.
